Experimental data taken from ChEMBL document CHEMBL3045561, “Feeding deterrents from Zanthoxylum schinifolium against two stored-product insects” (J Agric Food Chem, 2009).

Tests used:
Tribolium castaneum [1] = test: Feeding deterrent activity against adult Tribolium castaneum (red flour beetle) on compound pre-treated wheat flour disks assessed as food utilization rate at 30 ppm after 3 days by flour disk bioassay (reference value: 20.59 +/-1.47%); type: functional
Tribolium castaneum [2] = test: Feeding deterrent activity against adult Tribolium castaneum (red flour beetle) on compound pre-treated wheat flour disks assessed as food utilization rate at 10 ppm after 3 days by flour disk bioassay (reference value: 20.59 +/-1.47%); type: functional
Sitophilus zeamais [3] = test: Feeding deterrent activity against adult Sitophilus zeamais on compound pretreated wheat flour disks assessed as food utilization rate at 30 ppm after 3 days by flour disk bioassay (reference value: 11.09 +/-1.12%); type: functional
Sitophilus zeamais [4] = test: Feeding deterrent activity against adult Sitophilus zeamais on compound pretreated wheat flour disks assessed as food utilization rate at 3 ppm after 3 days by flour disk bioassay (reference value: 11.09 +/-1.12%); type: functional
Tribolium castaneum [5] = test: Feeding deterrent activity against adult Tribolium castaneum (red flour beetle) on compound pre-treated wheat flour disks assessed as relative food consumption rate at 300 ppm after 3 days by flour disk bioassay (reference value: 143.22 +/-4.32 ug/mg/day); type: functional
Tribolium castaneum [6] = test: Feeding deterrent activity against adult Tribolium castaneum (red flour beetle) on compound pre-treated wheat flour disks assessed as relative food consumption rate at 30 ppm after 3 days by flour disk bioassay (reference value: 143.22 +/-4.32 ug/mg/day); type: functional
Sitophilus zeamais [7] = test: Feeding deterrent activity against adult Sitophilus zeamais on compound pretreated wheat flour disks assessed as relative food consumption rate at 100 ppm after 3 days by flour disk bioassay (reference value: 122.72 +/-4.32 ug/mg/day); type: functional
Sitophilus zeamais [8] = test: Feeding deterrent activity against adult Sitophilus zeamais on compound pretreated wheat flour disks assessed as relative food consumption rate at 10 ppm after 3 days by flour disk bioassay (reference value: 122.72 +/-4.32 ug/mg/day); type: functional
Sitophilus zeamais [9] = test: Feeding deterrent activity against adult Sitophilus zeamais on compound pretreated wheat flour disks assessed as relative food consumption rate at 3 ppm after 3 days by flour disk bioassay (reference value: 122.72 +/-4.32 ug/mg/day); type: functional
Tribolium castaneum [10] = test: Feeding deterrent activity against adult Tribolium castaneum (red flour beetle) on compound pre-treated wheat flour disks assessed as relative growth rate at 1000 ppm after 3 days by flour disk bioassay (reference value: 29.49 +/-1.35 ug/mg/day); type: functional
Tribolium castaneum [11] = test: Feeding deterrent activity against adult Tribolium castaneum (red flour beetle) on compound pre-treated wheat flour disks assessed as relative growth rate at 300 ppm after 3 days by flour disk bioassay (reference value: 29.49 +/-1.35 ug/mg/day); type: functional
Tribolium castaneum [12] = test: Feeding deterrent activity against adult Tribolium castaneum (red flour beetle) on compound pre-treated wheat flour disks after 3 days by flour disk bioassay; type: functional, organism-based
Sitophilus zeamais [13] = test: Feeding deterrent activity against adult Sitophilus zeamais on compound pretreated wheat flour disks after 3 days by flour disk bioassay; type: functional, organism-based
Tribolium castaneum [14] = test: Feeding deterrent activity against adult Tribolium castaneum (red flour beetle) on compound pre-treated wheat flour disks at 300 ppm after 3 days by flour disk bioassay; type: functional
Tribolium castaneum [15] = test: Feeding deterrent activity against adult Tribolium castaneum (red flour beetle) on compound pre-treated wheat flour disks at 10 ppm after 3 days by flour disk bioassay; type: functional
Tribolium castaneum [16] = test: Feeding deterrent activity against adult Tribolium castaneum (red flour beetle) on compound pre-treated wheat flour disks assessed as relative growth rate at 30 ppm after 3 days by flour disk bioassay (reference value: 29.49 +/-1.35 ug/mg/day); type: functional
Sitophilus zeamais [17] = test: Feeding deterrent activity against adult Sitophilus zeamais on compound pretreated wheat flour disks assessed as relative growth rate at 10 ppm after 3 days by flour disk bioassay (reference value: 13.61 +/-1.13 ug/mg/day); type: functional
Sitophilus zeamais [18] = test: Feeding deterrent activity against adult Sitophilus zeamais on compound pretreated wheat flour disks assessed as relative growth rate at 30 ppm after 3 days by flour disk bioassay (reference value: 13.61 +/-1.13 ug/mg/day); type: functional
Tribolium castaneum [19] = test: Feeding deterrent activity against adult Tribolium castaneum (red flour beetle) on compound pre-treated wheat flour disks at 3 ppm after 3 days by flour disk bioassay; type: functional
Sitophilus zeamais [20] = test: Feeding deterrent activity against adult Sitophilus zeamais on compound pretreated wheat flour disks at 30 ppm after 3 days by flour disk bioassay; type: functional
Tribolium castaneum [21] = test: Feeding deterrent activity against adult Tribolium castaneum (red flour beetle) on compound pre-treated wheat flour disks assessed as mortality at 1000 ppm after 3 days by flour disk bioassay (reference value: 0%); type: functional
Tribolium castaneum [22] = test: Feeding deterrent activity against adult Tribolium castaneum (red flour beetle) on compound pre-treated wheat flour disks assessed as mortality at 30 ppm after 3 days by flour disk bioassay (reference value: 0%); type: functional
Tribolium castaneum [23] = test: Feeding deterrent activity against adult Tribolium castaneum (red flour beetle) on compound pre-treated wheat flour disks assessed as mortality at 3 ppm after 3 days by flour disk bioassay (reference value: 0%); type: functional
Sitophilus zeamais [24] = test: Feeding deterrent activity against adult Sitophilus zeamais on compound pretreated wheat flour disks assessed as mortality at 100 ppm after 3 days by flour disk bioassay (reference value: 0%); type: functional
Sitophilus zeamais [25] = test: Feeding deterrent activity against adult Sitophilus zeamais on compound pretreated wheat flour disks assessed as mortality at 10 ppm after 3 days by flour disk bioassay (reference value: 0%); type: functional
Sitophilus zeamais [26] = test: Feeding deterrent activity against adult Sitophilus zeamais on compound pretreated wheat flour disks assessed as mortality at 3 ppm after 3 days by flour disk bioassay (reference value: 0%); type: functional
Tribolium castaneum [27] = test: Feeding deterrent activity against adult Tribolium castaneum (red flour beetle) on compound pre-treated wheat flour disks assessed as food utilization rate at 300 ppm after 3 days by flour disk bioassay (reference value: 20.59 +/-1.47%); type: functional

Row | SMILES | ECI (Tribolium castaneum [1]) [%] | ECI (Tribolium castaneum [2]) [%] | ECI (Sitophilus zeamais [3]) [%] | ECI (Sitophilus zeamais [4]) [%] | Activity (Tribolium castaneum [5]) [µg/mg/day] | Activity (Tribolium castaneum [6]) [µg/mg/day] | Activity (Sitophilus zeamais [7]) [µg/mg/day] | Activity (Sitophilus zeamais [8]) [µg/mg/day] | Activity (Sitophilus zeamais [9]) [µg/mg/day] | Activity (Tribolium castaneum [10]) [µg/mg/day] | Activity (Tribolium castaneum [11]) [µg/mg/day] | EC50 (Tribolium castaneum [12]) [ppm] | EC50 (Sitophilus zeamais [13]) [ppm] | FDI (Tribolium castaneum [14]) [%] | FDI (Tribolium castaneum [15]) [%] | Activity (Tribolium castaneum [16]) [µg/mg/day] | Activity (Sitophilus zeamais [17]) [µg/mg/day] | Activity (Sitophilus zeamais [18]) [µg/mg/day] | FDI (Tribolium castaneum [19]) [%] | FDI (Sitophilus zeamais [20]) [%] | other results
1 | COc1ccc2c(OC)c3ccoc3nc2c1OC [SKIMMIANINE] | 15.12 | 19.41 | 10.34 | 10.98 | 31.56 | 101.27 | 59.65 | 112.77 | 120.9 | 1.23 | 3.17 | 75.71 | 129.72 | 68.62 | 13.21 | 15.31 | 12.03 | 9.6 | 4.31 | 26.12 | mortality at 1000 ppm (Tribolium castaneum [21]): 14%; mortality at 30 ppm (Tribolium castaneum [22]): 0%; mortality at 3 ppm (Tribolium castaneum [23]): 0%; mortality at 100 ppm (Sitophilus zeamais [24]): 0%; mortality at 10 ppm (Sitophilus zeamais [25]): 0%; mortality at 3 ppm (Sitophilus zeamais [26]): 0%; ECI (Tribolium castaneum [27]): 10.03%
2 | CCCCCCCc1cc(=O)c2ccccc2n1C [SCHINIFOLINE] | 16.5 | 20.32 | 10.07 | 11.21 | 21.29 | 79.64 | 50.29 | 114.13 | 122.39 | 0.07 | 1.6 | 47.81 | 85.63 | 85.85 | 18.64 | 13.13 | 12.25 | 9.06 | 4.46 | 26.69 | mortality at 1000 ppm (Tribolium castaneum [21]): 20%; mortality at 30 ppm (Tribolium castaneum [22]): 0%; mortality at 3 ppm (Tribolium castaneum [23]): 0%; mortality at 100 ppm (Sitophilus zeamais [24]): 0%; mortality at 10 ppm (Sitophilus zeamais [25]): 0%; mortality at 3 ppm (Sitophilus zeamais [26]): 0%; ECI (Tribolium castaneum [27]): 7.53%
